Measurements from patent publication US8969554B2, “6-acyl-1,2,4-triazine-3,5-dione derivative and herbicides” (Kumiai Chemical Industry Co., Ltd., priority 2010, dated 2015).

Tests used:
Format in all cases: in vivo
Echinochloa oryzicola = assay: Herbicidal activity by paddy field soil treatment (Test Example 1); set-up: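 index 0 to 10 in 10% steps of herbicidal effect with 10 meaning complete death and 0 below 10%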; details: 1000 g of effective component per hectare, evaluated on day 21 after the treatment, criteria of Table 72
How it was run: (§1)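 Flooded-paddy pre-emergence assay at 1000 g a.i./ha, applied to the water surface one day after sowing; visual herbicidal score at day 21 in greenhouse.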

Scirpus juncoides Rocxb. = assay: as above; set-up: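 index 0 to 10 in 10% steps of herbicidal effect with 10 meaning complete death and 0 below 10%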; details: applied on water surface, 1000 g of effective component per hectare, day 21 after the treatment
How it was run: as §1

Monochoria vaginalis = assay: as above; set-up: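 index 0 to 10 in 10% steps of herbicidal effect with 10 meaning complete death and 0 below 10%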; details: 1000 g of effective component per hectare, evaluated on day 21 after the treatment, criteria of Table 72
How it was run: as §1

foxtail = assay: Herbicidal activity by field soil treatment (Test example 2); details: 1000 g effective component per hectare, day 21 after the treatment;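 note: index 0 to 10 in 10% steps of herbicidal effect with 10 meaning complete death and 0 below 10%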
How it was run: (§2)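 A wettable powder formulation, diluted with water, is applied to soil over just-sown seeds at an effective rate of 1000 g/ha. Effects are judged 21 days later after greenhouse growth.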

A. retroflexus [1] = assay: Herbicidal activity by field foliage treatment (Test example 3); set-up: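 index 0 to 10 in 10% steps of herbicidal effect with 10 meaning complete death and 0 below 10%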; details: 1000 g effective component per hectare, day 14 after the treatment
How it was run: (§3)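 Test plants, grown from seed for two weeks in a greenhouse, are treated by foliar application of a wettable-powder formulation in water at a rate of 1000 g effective component per hectare. Damage is assessed 14 days later.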

Indian millet [2] = assay: as above; set-up: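 index 0 to 10 in 10% steps of herbicidal effect with 10 meaning complete death and 0 below 10%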; details: 1000 g effective component per hectare, day 14 after the treatment
How it was run: as §3

Setaria viridis = assay: as above; details: 1000 g effective component per hectare, day 14 after the treatment;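 note: index 0 to 10 in 10% steps of herbicidal effect with 10 meaning complete death and 0 below 10%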
How it was run: (§4)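 Potted field-soil plants grown 2 weeks in a greenhouse were sprayed over the whole foliage with diluted wettable powder at 1000 L/ha, delivering 1000 g active ingredient per hectare. Herbicidal effect scored by visual criteria 14 days after treatment.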

Echinochloa crus-galli [3] = assay: as above; set-up: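 index 0 to 10 in 10% steps of herbicidal effect with 10 meaning complete death and 0 below 10%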; details: 1000 g effective component per hectare, day 14 after the treatment
How it was run: as §4

A. retroflexus [4] = assay: Herbicidal activity by field soil treatment (Test example 2); set-up: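 index 0 to 10 in 10% steps of herbicidal effect with 10 meaning complete death and 0 below 10%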; details: 1000 g effective component per hectare, day 21 after the treatment
How it was run: as §2

Indian millet [5] = assay: as above; set-up: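 index 0 to 10 in 10% steps of herbicidal effect with 10 meaning complete death and 0 below 10%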; details: 1000 g effective component per hectare, day 21 after the treatment
How it was run: as §2

Echinochloa crus-galli [6] = assay: as above; set-up: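 index 0 to 10 in 10% steps of herbicidal effect with 10 meaning complete death and 0 below 10%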; details: 1000 g effective component per hectare, day 21 after the treatment
How it was run: as §2

Structure (SMILES)	Herbicidal effects index number, Echinochloa oryzicola (Echinochloa oryzicola)	herbicidal effect index, S. juncoides Rocxb. (Scirpus juncoides Rocxb.)	Herbicidal effects index number, Monochoria vaginalis (Monochoria vaginalis)	herbicidal effect index, Setaria viridis (foxtail)	herbicidal effect index, Amaranthus retroflexus (A. retroflexus [1])	herbicidal effect index, Abutilon theophrasti (Indian millet [2])	herbicidal effect index, Setaria viridis (Setaria viridis)	herbicidal effect index, Echinochloa crus-galli (Echinochloa crus-galli [3])	herbicidal effect index, Amaranthus retroflexus (A. retroflexus [4])	herbicidal effect index, Abutilon theophrasti (Indian millet [5])	herbicidal effect index, Echinochloa crus-galli (Echinochloa crus-galli [6])
Cn1nc(C(=O)C2=C(O)CCCC2=O)c(=O)n(-c2ccc(F)c(F)c2)c1=O [I-75]	10	10	10	7	10	10	10	10	10	10	9
CC(C)n1c(=O)c(C(=O)C2=C(O)CCCC2=O)nn(C)c1=O [I-4]	9	10	9	9	9	9	9	9	10	9	9
Cc1cc(Br)ccc1-n1c(=O)c(C(=O)C2=C(O)CCCC2=O)nn(C)c1=O [I-282]	10	10	10	10	8	9	7	8	10	9	10
CCc1ccccc1-n1c(=O)c(C(=O)C2=C(O)CCCC2=O)nn(C)c1=O [I-288]	10	10	10	9	10	10	10	9	10	9	10
Cc1ccc(C)c(-n2c(=O)c(C(=O)C3=C(O)CCCC3=O)nn(C)c2=O)c1 [I-91]	10	10	10	10	10	10	10	9	10	10	9
CCCn1c(=O)c(C(=O)C2=C(O)CCCC2=O)nn(C)c1=O [I-3]	10	10	10	10	9	9	9	9	10	10	10
Cn1nc(C(=O)C2=C(O)CCCC2=O)c(=O)n(CC(F)(F)F)c1=O [I-10]	10	10	10	10	10	9	7	8	10	10	10
Cn1nc(C(=O)C2=C(O)CCCC2=O)c(=O)n(-c2ccccc2-c2ccccc2)c1=O [I-269]	8	10	8	9	10	9	8	10	10	9	8
COc1ccc(Cl)cc1-n1c(=O)c(C(=O)C2=C(O)CCCC2=O)nn(C)c1=O [I-134]	10	10	10	10	10	10	10	10	10	10	10
Cn1nc(C(=O)C2=C(O)CCCC2=O)c(=O)n(-c2ccc(F)cc2)c1=O [I-56]	10	10	10	10	10	10	10	10	9	10	10
Cn1nc(C(=O)C2=C(O)CCCC2=O)c(=O)n(-c2cccnc2Cl)c1=O [I-276]	8	9	8	9	10	9	10	10	10	10	9
C=CCn1c(=O)c(C(=O)C2=C(O)CCCC2=O)nn(C)c1=O [I-11]	10	10	10	7	10	9	9	9	10	9	10
COc1cc(-n2c(=O)c(C(=O)C3=C(O)CCCC3=O)nn(C)c2=O)c(F)cc1Cl [I-297]	10	10	10	9	8	8	9	9	10	9	10
Cc1ccc(-n2c(=O)c(C(=O)C3=C(O)CCCC3=O)nn(C)c2=O)cc1F [I-105]	10	10	10	7	10	10	7	10	10	9	9
CCCCn1c(=O)c(C(=O)C2=C(O)CCCC2=O)nn(C)c1=O [I-5]	10	10	10	7	10	10	10	10	10	10	10
